Reference: patent US20150265514A1, “METHODS OF INHIBITING HAIR GROWTH” (NOGRA PHARMA LIMITED, priority 2012, published 2015)
Entries after “also recorded” stand apart in the source; their conditions may differ.

Legend:
K19 = K19 quantitative immunohistochemistry in organ-cultured human scalp hair follicles; format: cell-based; details: for Keratin 19 immunoreactivity: all concentrations tested
Protocol: (§1) Normal human scalp skin was obtained from 6 women undergoing routine face-lift surgery after informed consent. All experiments were performed according to Helsinki guidelines, with appropriate ethics committee approval.
(§2) Normally pigmented anagen VI hair follicles (HFs) (grey/white HFs were excluded from the study) were microdissected from normal human scalp skin and organ cultured following the Philpott model. Compound A or vehicle was administered once for each change of medium (i.e. every 48 h/72 h).
A previously described protocol was used to investigate K19 expression (Kloepper et al., 2008). Briefly, acetone-fixed cryosections were pre-treated with goat serum (10% in Tris-buffered saline, Dako). The sections were incubated first with primary antibodies against K19 (mouse anti-human: K19-1:10; overnight, at 4° C.; PROGEN, Heidelberg, Germany;) and then with FITC-labeled goat anti-mouse (1:200 in TBS, for 45 min, RT, Jackson ImmunoResearch) immunoglobulins as secondary antibodies. Counterstaining was performed with DAPI (Boehringer Mannheim, Mannheim, Germany). The intensity of this immunostaining was quantified by ImageJ software (National Institutes of Health). The staining intensity of defined reference regions in the HF was measured and compared between control and Compound A-treated groups. The percentage of K19-positive cells in comparison to the total amount of cells in the ORS was calculated.
Statistical analysis was performed using a two-tailed Student's t-test for unpaired samples. For meta-analysis purposes, a total of six assays (each with HFs from a different female individual) were run. […] In order to avoid data distortion by individual experiments, rigid exclusion criteria were defined that allowed to exclude one individual experiment (out of 5-6) per read-out parameter. Since these exclusion criteria differed for each study parameter, different experiments (i.e. one out of 6, and one out of 5 in the case of keratin 19 analysis) were excluded for each assay parameter. The exclusion criteria were: (i) most extreme deviation from the results trend shown by the majority among the 6 experiments, in order to avoid data distortion by outliers (which can be affected e.g. by patient's medication, medical history etc.); and (ii) failure to meet minimal quality criteria.

keratin K15 = test: K15 quantitative immunohistochemistry in organ-cultured human scalp hair follicles; format: cell-based; details: human scalp HF organ culture; for Keratin-15 immunoreactivity: all concentrations tested, pooled data
Protocol: as §1, §2
To investigate keratin K15 expression, the tyramide signal amplification method was used as previously described (Kloepper et al., 2008). Briefly, acetone fixed cryosections were washed three times for 5 min using TNT (Tris-HCL NaCl Tween) buffer (0.1 mol/1 Tris-HCl, pH 7.5; containing 0.15 mol/1 NaCl and 0.05% Tween 20). Next, horseradish peroxidase was blocked by washing with 3% H2O2 in phosphate-buffered saline (PBS) for 15 min. Preincubation was performed with the incubation of avidin and biotin for 15 min and 5% goat normal serum in TNT for 30 min with washing steps in between. Mouse anti-human K15 (clone LHK15, Chemicon, Billerica, USA) was diluted in TNT and incubated overnight at 4° C. followed by a biotinylated secondary antibody goat anti-mouse (1:200 in TNT) for 45 min at RT. Next, streptavidin horseradish peroxidase (TSA kit; Perkin-Elmer, Boston, Mass., USA) was administered (1:100 in TNT) for 30 min at RT. […] The intensity of the immunostaining was quantified by ImageJ software (National Institutes of Health). The staining intensity of defined reference regions in the HF was measured and compared between control and N Compound A-treated groups. The percentage of K15-positive cells in comparison to the total amount of cells in the ORS was calculated.
Statistical analysis was performed using a two-tailed Student's t-test for unpaired samples. […] In order to avoid data distortion by individual experiments, rigid exclusion criteria were defined that allowed to exclude one individual experiment (out of 5-6) per read-out parameter. […]

[1] = tested on: anagen VI hair follicles (HFs); test: Hair shaft elongation in hair follicle organ culture; format: cell-based, human
Protocol: as §2
(§3) Details regarding tissue specimen origin used in the present example are as described in Example 2 above.
Hair shaft length measurements of HFs were performed on individual HFs using a Zeiss inverted binocular microscope with an eyepiece measuring graticule.
(§4) To evaluate apoptotic cells in colocalization with a proliferation marker Ki-67, a Ki-67/terminal dUTP nick-end labeling (TUNEL) double-staining method was used. Cryostat sections were fixed in paraformaldehyde and ethanol-acetic acid (2:1) and labeled with a digoxigenin-deoxy-UTP (ApopTag fluorescein in situ apoptosis detection kit; Intergen, Purchase, N.Y.) in the presence of terminal deoxynucleotidyl transferase, followed by incubation with a mouse anti-Ki-67 antiserum (1:20 in PBS overnight at 4 C; Dako, Glostrup, Denmark). TUNEL-positive cells were visualized by an antidigoxigenin fluorescein isothiocyanate-conjugated antibody (ApopTag kit), whereas Ki-67 was detected by a rhodamine-labeled goat antimouse antibody (Jackson ImmunoResearch, West Grove, Pa.). Negative controls were performed by omitting terminal deoxynucleotidyltransferase and the Ki-67 antibody. Counterstaining was performed with 4′,6-diamidino-2-phenylindole (DAPI) (Roche Molecular Biochemicals GmbH, Mannheim, Germany). Quantitative immunohistomorphometry was performed; Ki-67-, TUNEL-, or DAPI-positive cells were counted in a previously defined reference region of the HF matrix, and the percentage of Ki-67/TUNEL-positive cells were determined. Statistical analysis was performed using a two-tailed Student's t-test for unpaired samples. […] In order to avoid data distortion by individual experiments, rigid exclusion criteria were defined that allowed to exclude one individual experiment (out of 5-6) per read-out parameter. […]

[2] = tested on: anagen VI hair follicles (HFs); test: LDH activity in supernatant of hair follicle organ culture (cytotoxicity); format: cell-based, human; details: for LDH activity in the supernatant: 0.1 mM dose, day 6, pooled data
Protocol: as §2, §3
LDH activity in the supernatant can serve as an indicator of cytotoxicity and was measured following the manufacturer's instructions (Cytotoxicity Detection Kit; Roche, Mannheim, Germany). The absorbance of the samples was measured at 490 nm using an ELISA plate-reader.
as §4, with “determined.” for “determined. Statistical analysis was performed using a two-tailed Student's t-test for unpaired samples.”

[3] = tested on: anagen VI hair follicles (HFs); test: HF cycle staging (anagen/catagen) in hair follicle organ culture; format: cell-based, human
Protocol: as §2, §3
HF cycle staging was carried out according to previously defined morphological criteria, and the percentage of HFs in anagen and early, mid, or late catagen was determined.
as §4

[4] = listed as N-acetyl-(R)-(−)-3-(4-aminophenyl)-2-methoxypropionic acid

For `CO[C@H](Cc1ccc(NC(C)=O)cc1)C(=O)O` [Compound A, N-acetyl-(R)-(−)-3-(4-aminophenyl)-2-methoxypropionic acid], the “Keratin 19 immunoreactivity” value (K19; human scalp HF organ culture, pooled data) was “strongly stimulated”, the “Keratin 19 immunoreactivity” value (K19; human scalp HF organ culture, pooled data, listed as N-acetyl-(R)-(−)-3-(4-aminophenyl)-2-methoxypropionic acid) was “stimulation” and the “number of K19-positive cells relative to control” value (K19; human scalp HF organ culture) was “stimulating effect”. For the same compound, the “numbers of K19 positive cells” value (K19; low and high concentrations, pooled data) was “increased numbers”, the Keratin-15 immunoreactivity (keratin K15) was “strongly stimulated” and the Keratin-15 immunoreactivity (keratin K15; [4]) was “stimulation”. The “number of K15-positive cells” value (keratin K15) was “did not increase”, the hair shaft elongation ([1]; high dose (1 mM), day 6, pooled data) was “slightly, but significantly, inhibited; also recorded: inhibits hair shaft elongation” and the hair shaft elongation ([1]; high dose (1 mM), day 6, pooled data, listed as N-acetyl-(R)-(−)-3-(4-aminophenyl)-2-methoxypropionic acid) was “inhibition”. The hair shaft elongation ([1]; lower concentrations (below 1 mM)) was “did not have an effect”, the “LDH activity in the supernatant” value [2] was “slight increase” and the “LDH activity in the supernatant” value [2, 4] was “increase”. For the same compound, the “HF toxicity under assay conditions” value ([2]; concluded from LDH activity) was “very low, if any”, the “hair cycle effect (catagen)” value ([3]; all concentrations, pooled data) was “induced catagen; also recorded: catagen-inducing effect” and the “hair cycle effect (catagen)” value ([3]; analysis of the individual 5 experiments, percentage of each hair cycle stage, n=5) was “strong trend towards induction of catagen”. The “hair cycle effect (catagen)” value ([3]; analysis of the individual 5 experiments, percentage of each hair cycle stage, n=5, listed as N-acetyl-(R)-(−)-3-(4-aminophenyl)-2-methoxypropionic acid) was “trend toward catagen”.
